From BindingDB's records for patent US12565497 (Hoffmann-La Roche, 2026)

Biological target: S-adenosylmethionine synthase isoform type-2 (Homo sapiens, UniProt P31153)
Test: Determination of Mat2A Activity
Procedure: Measurement of Mat2A inhibition is performed in 384 well format absorbance-based assay. Recombinant human Mat2a (12.5 nM) and serial diluted compounds in DMSO (range of concentrations from 10 μM to 508 pM) or controls (DMSO) are incubated for 15 minutes at room temperature (RT) in assay buffer containing 50 mM HEPES pH 7.5, 50 mM KCl, 50 mM MgCl2, 0.01%Tween 20 and 10 mM DTT. The reaction is initiated by the addition of the combined substrates ATP and Methionine, each at a final concentration of 100 μM. Final assay condition are 12.5 nM Mat2A, 100 μM ATP and Methionine Substrates and 2% DMSO. After 120 minutes of incubation at RT, the reaction is stopped by the addition of Biomol Green. The absorbance signal is measured at λ=635 nm with a multiplate reader (BMG Pherastar reader or equivalent) after 30 min of equilibration at RT.

Chain of S-adenosylmethionine synthase isoform type-2 (P31153 whole entry, canonical isoform): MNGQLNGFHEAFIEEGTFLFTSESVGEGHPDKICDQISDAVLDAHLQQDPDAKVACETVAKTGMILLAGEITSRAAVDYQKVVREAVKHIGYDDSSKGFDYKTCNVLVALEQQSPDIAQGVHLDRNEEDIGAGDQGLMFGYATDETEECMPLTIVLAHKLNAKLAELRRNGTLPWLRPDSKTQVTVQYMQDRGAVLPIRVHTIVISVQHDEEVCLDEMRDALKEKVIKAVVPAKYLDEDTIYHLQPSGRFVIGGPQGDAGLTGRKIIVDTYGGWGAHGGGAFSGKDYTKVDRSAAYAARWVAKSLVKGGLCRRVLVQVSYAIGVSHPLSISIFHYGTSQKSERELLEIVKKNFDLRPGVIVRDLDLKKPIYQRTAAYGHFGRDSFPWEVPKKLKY

| Structure (SMILES) | IC50 |
| --- | --- |
| CCS(=O)(=O)c1ccc(-c2nccc3[nH]nc(C4CC4)c23)cc1C [US12565497, Example 20] | 15 nM |
| Cc1cc(-c2c(S(C)(=N)=O)ccc3[nH]nc(C4CC4)c23)ccc1S(C)(=O)=O (configuration not stated) [US12565497, Example 112] | 90 nM |
| Cc1cc(-c2c(S(C)(=O)=O)ccc3[nH]nc(OC(F)F)c23)ccc1S(C)(=O)=O [US12565497, Example 49] | < 13 nM |
| Cc1cc(-c2c(C(=O)NC3COC3)ncc3[nH]nc(C4CC4)c23)ccc1S(C)(=O)=O [US12565497, Example 84] | < 13 nM |

Next, values leading:

| IC50 | Structure (SMILES) |
| --- | --- |
| < 13 nM | Cc1cc(-c2c(C(=O)NC3CC3)ncc3[nH]nc(C4CC4)c23)ccc1S(C)(=O)=O [US12565497, Example 86] |
| < 13 nM | COCCNC(=O)c1ncc2[nH]nc(OC(F)F)c2c1-c1ccc(S(=O)(=O)C(F)F)c(C)c1 [US12565497, Example 109] |
| < 13 nM | Cc1cc(-c2c(S(C)(=O)=O)ccc3[nH]nc(OC(F)F)c23)ccc1S(=O)(=O)C(F)F [US12565497, Example 117] |
